Results as given in patent US9920032B2, “Heterocyclic compounds useful as pim kinase inhibitors” (Incyte Corporation, priority 2015, dated 2018).

What was measured:
Assay type in all cases: biochemical
Pim-3 = Pim-3 (Homo sapiens (Human), UniProt Q86V86); experiment: Pim-3 kinase assay; details: 1 mM ATP; read-out: PIM3 IC50
How it was run: (§1)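 Enzyme at 2.5 pM (Pim-1) or 1.25 pM (Pim-3) reacted 1 h at 25° C with 1 mM ATP and 0.05 μM biotinylated BAD peptide, pH 7.5. Phospho-Ser112 BAD detected by antibody/Protein-A acceptor and streptavidin donor bead proximity signal after EDTA quench and 1 h dark incubation.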

Pim-2 = Pim-2 (Homo sapiens (Human), UniProt Q9P1W9); experiment: Pim-2 kinase assay; details: 1 mM ATP; read-out: PIM2 IC50
How it was run: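 TR-FRET assay with 1 nM enzyme, 0.05 μM fluorescein-CREBtide and 1 mM ATP in Tris pH 7.5 buffer with MgCl2, DTT, BSA and Tween-20, run 2 h at 25° C. Stopped with EDTA and Tb-labelled anti-CREB pSer133 antibody, then read after 30 min at room temperature.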

Pim-1 = Pim-1 (Homo sapiens (Human), UniProt P11309); experiment: Pim-1 kinase assay; details: 1 mM ATP; read-out: PIM1 IC50
How it was run: as §1

Sequence of Pim-1 (P11309 whole entry): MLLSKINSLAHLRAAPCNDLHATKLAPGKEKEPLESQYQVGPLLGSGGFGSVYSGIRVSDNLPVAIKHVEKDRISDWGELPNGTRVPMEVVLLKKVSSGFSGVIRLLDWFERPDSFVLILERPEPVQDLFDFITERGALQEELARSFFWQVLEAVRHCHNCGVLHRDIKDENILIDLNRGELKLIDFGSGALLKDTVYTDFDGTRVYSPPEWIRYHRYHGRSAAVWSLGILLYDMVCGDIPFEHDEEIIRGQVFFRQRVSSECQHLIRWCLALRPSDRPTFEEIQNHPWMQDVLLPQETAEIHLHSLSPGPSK
Sequence of Pim-2 (Q9P1W9 whole entry): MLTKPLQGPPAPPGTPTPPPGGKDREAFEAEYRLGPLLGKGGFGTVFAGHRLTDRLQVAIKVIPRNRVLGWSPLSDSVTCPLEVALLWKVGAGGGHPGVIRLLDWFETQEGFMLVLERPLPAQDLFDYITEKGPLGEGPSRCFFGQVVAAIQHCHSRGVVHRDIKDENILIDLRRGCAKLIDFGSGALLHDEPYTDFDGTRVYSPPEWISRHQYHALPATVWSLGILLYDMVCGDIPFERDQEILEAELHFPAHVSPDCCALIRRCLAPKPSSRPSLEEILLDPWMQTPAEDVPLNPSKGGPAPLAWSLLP

Compound | IC50 (Pim-3) [nM] | IC50 (Pim-2) [nM] | IC50 (Pim-1) [nM]
CC1CN(c2cnc3c(C(=O)Nc4cnccc4[C@@H]4C[C@H](C)C[C@H](N)C4)ccc(F)c3c2)C1 [Example 111, N-(4-((1R,3S,5S)-3-Amino-5-methylcyclohexyl)pyridin-3-yl)-5-fluoro-3-(3-methylazetidin-1-yl)quinoline-8-carboxamide] | ≤ 10 | ≤ 100 | ≤ 10
C[C@@H]1C[C@H](N)C[C@H](c2ccncc2NC(=O)c2ccc(F)c3cc(N4CCN(C)C(=O)[C@@H]4C)cnc23)C1 [Example 112, N-(4-((1R,3S,5S)-3-Amino-5-methylcyclohexyl)pyridin-3-yl)-3-((5)-2,4-dimethyl-3-oxopiperazin-1-yl)-5-fluoroquinoline-8-carboxamide] | ≤ 10 | ≤ 100 | ≤ 10
C[C@@H]1C[C@H](N)C[C@H](c2ccncc2NC(=O)c2ccc(F)c3cc(N4CCC[C@H](C)C4)cnc23)C1 [Example 113, N-(4-((1R,3S,5S)-3-Amino-5-methylcyclohexyl)pyridin-3-yl)-5-fluoro-3-((S)-3-methylpiperidin-1-yl)quinoline-8-carboxamide] | ≤ 10 | ≤ 100 | ≤ 10
C[C@@H]1C[C@H](N)C[C@H](c2ccncc2NC(=O)c2ccc(F)c3cc(N4CCN(C5CC5)C(=O)C4)cnc23)C1 [Example 114, N-(4-((1R,3S,5S)-3-Amino-5-methylcyclohexyl)pyridin-3-yl)-3-(4-cyclopropyl-3-oxopiperazin-1-yl)-5-fluoroquinoline-8-carboxamide] | ≤ 10 | ≤ 100 | ≤ 10
CC(C)N1CCN(c2cnc3c(C(=O)Nc4cnccc4[C@@H]4C[C@H](C)C[C@H](N)C4)ccc(F)c3c2)CC1=O [Example 115, N-(4-((1R,3S,5S)-3-Amino-5-methylcyclohexyl)pyridin-3-yl)-5-fluoro-3-(4-isopropyl-3-oxopiperazin-1-yl)quinoline-8-carboxamide] | ≤ 10 | ≤ 100 | ≤ 10
C[C@@H]1C[C@H](N)C[C@H](c2ccncc2NC(=O)c2ccc(F)c3cc(N4CC(C)(C)C4)cnc23)C1 [Example 116, N-(4-((1R,3S,5S)-3-Amino-5-methylcyclohexyl)pyridin-3-yl)-3-(3,3-dimethylazetidin-1-yl)-5-fluoroquinoline-8-carboxamide] | ≤ 10 | ≤ 100 | ≤ 10
CC(C)CN1CCN(c2cnc3c(C(=O)Nc4cnccc4[C@@H]4C[C@H](C)C[C@H](N)C4)ccc(F)c3c2)CC1=O [Example 117, N-(4-((1R,3S,5S)-3-Amino-5-methylcyclohexyl)pyridin-3-yl)-5-fluoro-3-(4-isobutyl-3-oxopiperazin-1-yl)quinoline-8-carboxamide] | ≤ 10 | ≤ 100 | ≤ 10
COC1(C)CN(c2cnc3c(C(=O)Nc4cnccc4[C@@H]4C[C@H](C)C[C@H](N)C4)ccc(F)c3c2)C1 [Example 118, N-(4-((1R,3S,5S)-3-Amino-5-methylcyclohexyl)pyridin-3-yl)-5-fluoro-3-(3-methoxy-3-methylazetidin-1-yl)quinoline-8-carboxamide] | ≤ 10 | ≤ 100 | ≤ 10
C[C@@H]1C[C@H](N)C[C@H](c2ccncc2NC(=O)c2ccc(F)c3cc(N4CCc5nn(C)cc5C4)cnc23)C1 [Example 119, N-(4-((1R,3S,5S)-3-Amino-5-methylcyclohexyl)pyridin-3-yl)-5-fluoro-3-(2-methyl-6,7-dihydro-2H-pyrazolo[4,3-c]pyridin-5(4H)-yl)quinoline-8-carboxamide] | ≤ 10 | ≤ 100 | ≤ 10
C[C@@H]1C[C@H](N)C[C@H](c2ccncc2NC(=O)c2ccc(F)c3cc(N4CCOc5cccc(F)c54)cnc23)C1 [Example 120, N-(4-((1R,3S,5S)-3-Amino-5-methylcyclohexyl)pyridin-3-yl)-5-fluoro-3-(5-fluoro-2H-benzo[b][1,4]oxazin-4(3H)-yl)quinoline-8-carboxamide] | ≤ 10 | ≤ 100 | ≤ 10
C[C@@H]1C[C@H](N)C[C@H](c2ccncc2NC(=O)c2ccc(F)c3cc(N4CC5(CCOCC5)C4)cnc23)C1 [Example 121, N-(4-((1R,3S,5S)-3-Amino-5-methylcyclohexyl)pyridin-3-yl)-5-fluoro-3-(7-oxa-2-azaspiro[3.5]nonan-2-yl)quinoline-8-carboxamide] | ≤ 10 | ≤ 100 | ≤ 10
CCOC1CN(c2cnc3c(C(=O)Nc4cnccc4[C@@H]4C[C@H](C)C[C@H](N)C4)ccc(F)c3c2)C1 [Example 122, N-(4-((1R,3S,5S)-3-Amino-5-methylcyclohexyl)pyridin-3-yl)-3-(3-ethoxyazetidin-1-yl)-5-fluoroquinoline-8-carboxamide] | ≤ 10 | ≤ 100 | ≤ 10
C[C@@H]1C[C@H](N)C[C@H](c2ccncc2NC(=O)c2ccc(F)c3cc(N4CC[C@H]4CO)cnc23)C1 [Example 123, N-(4-((1R,3S,5S)-3-Amino-5-methylcyclohexyl)pyridin-3-yl)-5-fluoro-3-((S)-2-(hydroxymethyl)azetidin-1-yl)quinoline-8-carboxamide] | ≤ 10 | ≤ 100 | ≤ 10
C[C@@H]1C[C@H](N)C[C@H](c2ccncc2NC(=O)c2ccc(F)c3cc(N4CCCN(S(C)(=O)=O)CC4)cnc23)C1 [Example 124, N-(4-((1R,3S,5S)-3-Amino-5-methylcyclohexyl)pyridin-3-yl)-5-fluoro-3-(4-(methylsulfonyl)-1,4-diazepan-1-yl)quinoline-8-carboxamide] | ≤ 10 | ≤ 100 | ≤ 10
C[C@@H]1C[C@H](N)C[C@H](c2ccncc2NC(=O)c2ccc(F)c3cc(Nc4ccccc4F)cnc23)C1 [Example 125, N-(4-((1R,3S,5S)-3-Amino-5-methylcyclohexyl)pyridin-3-yl)-5-fluoro-3-(2-fluorophenylamino)quinoline-8-carboxamide] | ≤ 10 | ≤ 100 | ≤ 10
COC(=O)N1CCCN(c2cnc3c(C(=O)Nc4cnccc4[C@@H]4C[C@H](C)C[C@H](N)C4)ccc(F)c3c2)CC1 [Example 126, Methyl 4-(8-(4-((1R,3S,5S)-3-amino-5-methylcyclohexyl)pyridin-3-ylcarbamoyl)-5-fluoroquinolin-3-yl)-1,4-diazepane-1-carboxylate] | ≤ 10 | ≤ 100 | ≤ 10
C[C@@H]1C[C@H](N)C[C@H](c2ccncc2NC(=O)c2ccc(F)c3cc(N4CCc5cnn(C)c5C4)cnc23)C1 [Example 127, N-(4-((1R,3S,5S)-3-Amino-5-methylcyclohexyl)pyridin-3-yl)-5-fluoro-3-(1-methyl-4,5-dihydro-1H-pyrazolo[3,4-c]pyridin-6(7H)-yl)quinoline-8-carboxamide] | ≤ 10 | ≤ 100 | ≤ 10
C[C@@H]1C[C@H](N)C[C@H](c2ccncc2NC(=O)c2ccc(F)c3cc(N4CCCN(C)S4(=O)=O)cnc23)C1 [Example 128, N-(4-((1R,3S,5S)-3-Amino-5-methylcyclohexyl)pyridin-3-yl)-5-fluoro-3-(6-methyl-1,1-dioxido-1,2,6-thiadiazinan-2-yl)quinoline-8-carboxamide] | ≤ 10 | ≤ 100 | ≤ 10
